Bounds are passed on as bounds.

Series [1] relates to A/California/07/2009 (H1N1). Description: Antiviral activity (drug efficacy evaluation by concentration) against A/California/07/2009 (H1N1). It counts as cell-based, A type influenza virus. Particulars: Influenza A virus, H1N1; read-out: EC50.
The test system of another series is B/Florida/04/2006. Description: Antiviral activity (drug efficacy evaluation by concentration) against B/Florida/04/2006. It counts as cell-based, B type influenza virus.
Another series has as its system A/Perth/16/2009 (H3N2). Nature of the series: Antiviral activity (drug efficacy evaluation by concentration) against A/Perth/16/2009 (H3N2). Format: cell-based, A type influenza virus. The note with it: Influenza A virus, H3N2; read-out: EC50.
The mark [2] stands for this setting: CC50, third EC50/CC50 column pair (c7), beside the EC50 of c6.

A word on the melting point: it is the temperature of the solid-liquid transition. One may read the EC50 as the concentration at which the effect is half-maximal. In the case of `Cc1ccccc1CCc1nnc(Nc2ccc(F)c(Cl)c2)o1` [Compound 122, N-(3-chloro-4-fluorophenyl)-5-(2-methylphenethyl)-1,3,4-oxadiazol-2-amine], the melting point was 87 °C. Further, the EC50 in series [1] amounted to 37.4 µM. In addition, in the series with B/Florida/04/2006, the EC50 was more than 50 µM. The CC50 in the series “in vitro” (CC50, beside the EC50 of c2) is more than 50 µM. Further, in “in vitro” (CC50, beside the EC50 of c4), the CC50 is more than 50 µM. The EC50 in the series on A/Perth/16/2009 (H3N2) is 43.9 µM.
In turn, `Cc1ccccc1CCc1nnc(Nc2ccc(C(F)(F)F)cc2)o1` [Compound 123, 5-(2-methylphenethyl)-N-(4-(trifluoromethyl)phenyl)-1,3,4-oxadiazol-2-amine] showed a melting point of 164.5 °C. Further, the EC50 in series [1] is 14.2 µM. Moreover, the response with B/Florida/04/2006 was half-maximal at 11 µM (EC50). This compound displayed a CC50 in the series “in vitro” (CC50, beside the EC50 of c2) of 35 µM. The CC50 in the series “in vitro” (CC50, beside the EC50 of c4) is more than 50 µM. Also, the CC50 in “in vitro” (setting [2]) was more than 50 µM. The EC50 in the series on A/Perth/16/2009 (H3N2) came out at 3.61 µM.
In turn, `Brc1ccc(Cc2nnc(/C=C/c3ccccc3-c3ccccc3)o2)cc1` [Compound 126, (E)-2-(2-([1,1′-biphenyl]-2-yl)vinyl)-5-(4-bromobenzyl)-1,3,4-oxadiazole] yielded a melting point of 87.4 °C. Further, the EC50 in series [1] turned out to be 45.7 µM. The compound also yielded an EC50 in the series with B/Florida/04/2006 of more than 50 µM. Also, the CC50 in “in vitro” (CC50, beside the EC50 of c2) is more than 50 µM. The same compound yielded a CC50 in the series “in vitro” (CC50, beside the EC50 of c4) of more than 50 µM. In “in vitro” (setting [2]), this compound returned a CC50 of more than 50 µM. Moreover, the EC50 in the series with A/Perth/16/2009 (H3N2) was more than 50 µM.
`Brc1ccc(Cc2nnc(/C=C/c3ccccc3Oc3ccccc3)o2)cc1` [Compound 127, (E)-2-(4-bromobenzyl)-5-(2-phenoxystyryl)-1,3,4-oxadiazole]: the melting point worked out at 125.5 °C. Besides, the EC50 in series [1] worked out at 34.9 µM. The same compound returned an EC50 in the series with B/Florida/04/2006 of 16 µM. The same compound returned a CC50 in the series “in vitro” (CC50, beside the EC50 of c2) of more than 50 µM. In addition, the CC50 in “in vitro” (CC50, beside the EC50 of c4) is more than 50 µM. The compound also gave a CC50 in the series “in vitro” (setting [2]) of more than 50 µM. For the same compound, the EC50 in the series on A/Perth/16/2009 (H3N2) turned out to be 24.4 µM.
`CC(C)c1ccccc1/C=C/c1nnc(Cc2cccc(Br)c2)o1` [Compound 130, 2-(3-bromobenzyl)-5-(2-isopropylstyryl)-1,3,4-oxadiazole] returned a melting point of 79.3 °C. Besides, the concentration for a half-maximal effect (EC50) in series [1] came out at 42.4 µM. The compound further returned a concentration giving a half-maximal response (EC50) in the series on B/Florida/04/2006 of 36.2 µM. The same compound had a CC50 in “in vitro” (CC50, beside the EC50 of c2) of more than 50 µM. The CC50 in “in vitro” (CC50, beside the EC50 of c4) was more than 50 µM. In the series “in vitro” (setting [2]), this compound gave a CC50 of more than 50 µM. The EC50 in the series on A/Perth/16/2009 (H3N2) was 32.8 µM.
`CC(C)c1ccccc1/C=C/c1nnc(Cc2cccc3ccccc23)o1` [Compound 132, 2-(2-isopropylstyryl)-5-(naphthalen-1-ylmethyl)-1,3,4-oxadiazole] displayed a melting point of 148.1 °C. For the same compound, in series [1], the EC50 turned out to be 1.52 µM. In the series on B/Florida/04/2006, this compound gave an EC50 of 1.58 µM. This compound yielded a CC50 in the series “in vitro” (CC50, beside the EC50 of c2) of 10.8 µM. The compound also came in with a CC50 in the series “in vitro” (CC50, beside the EC50 of c4) of 12.2 µM. The same compound displayed a CC50 in “in vitro” (setting [2]) of 13.6 µM. Further, in the series on A/Perth/16/2009 (H3N2), the EC50 was 1.14 µM.
The compound `CC(C)c1cccc(/C=C/c2nnc(Cc3ccc(Br)cc3)o2)c1` [Compound 151, 2-(4-bromobenzyl)-5-(3-isopropylstyryl)-1,3,4-oxadiazole] displayed a melting point of 61.8 °C. In addition, the EC50 in series [1] turned out to be 21.3 µM. In the series on B/Florida/04/2006, this compound returned an EC50 of 6.39 µM. Moreover, in “in vitro” (CC50, beside the EC50 of c2), the CC50 was more than 50 µM. In addition, the CC50 in “in vitro” (CC50, beside the EC50 of c4) is more than 50 µM. For the same compound, in the series “in vitro” (setting [2]), the CC50 was more than 50 µM. Moreover, the EC50 in the series with A/Perth/16/2009 (H3N2) is 6.38 µM.
`Fc1ccc(/C=C/c2nnc(Cc3ccccc3)o2)c(Cl)c1` [Compound 158, (E)-2-benzyl-5-(2-chloro-4-fluorostyryl)-1,3,4-oxadiazole] registered a melting point of 125.9 °C. Further, the EC50 in series [1] is more than 50 µM. This compound also displayed an EC50 with B/Florida/04/2006 of more than 50 µM. The compound also yielded a CC50 in “in vitro” (CC50, beside the EC50 of c2) of more than 50 µM. The compound also yielded a CC50 in the series “in vitro” (CC50, beside the EC50 of c4) of more than 50 µM. The compound also yielded a CC50 in “in vitro” (setting [2]) of more than 50 µM. Moreover, the EC50 in the series on A/Perth/16/2009 (H3N2) was more than 50 µM.
Regarding `Clc1cc2c(cc1/C=C/c1nnc(Cc3ccc(Br)cc3)o1)OCO2` [Compound 162, 2-(4-bromobenzyl)-5-(2-(6-chlorobenzo[d][1,3]dioxol-5-yl)vinyl)-1,3,4-oxadiazole], the melting point came to 186.2 °C. Also, in series [1], the EC50 amounted to 30.5 µM. In addition, the EC50 in the series with B/Florida/04/2006 is more than 50 µM. For the same compound, the CC50 in “in vitro” (CC50, beside the EC50 of c2) is more than 50 µM. In the series “in vitro” (CC50, beside the EC50 of c4), this compound yielded a CC50 of more than 50 µM. For the same compound, in the series “in vitro” (setting [2]), the CC50 is more than 50 µM. The EC50 in the series with A/Perth/16/2009 (H3N2) is more than 50 µM.

The values above are taken from US11149033B2, “Heteroaryl compound, enantiomer, diastereomer or pharmaceutically acceptable salt thereof, and antiviral composition containing same as active ingredient” (priority 2016, dated 2021).
